Test results from patent US20240173329A1, “BELVARAFENIB FOR USE IN TREATMENT OF BRAIN CANCERS” (Genentech, Inc., priority 2021, published 2024).
Like-named read-outs stand apart in the source and are kept apart here.

Tests used:
[1] = biological target: colony stimulating factor 1 receptor (CSF1R) (Homo sapiens, UniProt P07333); assay: panel of 189 kinase assays; format: biochemical
[2] = tested on: solid tumors harboring mutations in BRAF, KRAS, or NRAS genes; assay: open-label Phase Ib dose-expansion study; format: in vivo, human
Description: In another open-label, Phase Ib, dose-expansion study, belvarafenib was evaluated at a dose of 450 mg BID in patients with solid tumors harboring mutations in BRAF, KRAS, or NRAS genes. Efficacy was analyzed for 59 of 63 subjects who had at least 1 dose of belvarafenib after enrollment and had at least 1 post-baseline tumor assessment. BORR was 11.86% (7/59 subjects), ORR was 6.78% (4/59 subjects) with PR as confirmed best overall response (3 subjects with melanoma and a subject with CRC). […] Fifty (84.75%) of 59 subjects developed an event (progression of disease or death), all of which were reported as PD except 1 death case. In addition, median progression-free survival (PFS) was 7.83 weeks and the 95% confidence interval for the median was [7.26 weeks, 8.26 weeks]. Median duration of response (DOR) of a total response in this study was 15.66 weeks from 7 responders.

[3] = Pharmacokinetic profile and brain distribution in rats after oral administration; format: in vivo, rats (SD); conditions: for Kp / Cmax / Tmax / AUC(0-t) / MRT last / half-life / AUC(0-inf): rat
Description: Example 2 evaluated pharmacokinetic profile and brain distribution of belvarafenib in rats after oral administration.
The rat strain was SD supplied by Orient Bio Inc., Korea.
The rats were kept in conventional animal lab cages for 5 days for acclimation before the start of the experiment. The cages were polysulfone 1291H (W425×D266×H185 mm, Techniplast, Italy). Three rats were housed in each cage at a temperature of 22±2° C., a relative humidity of 50±20%, a ventilation frequency of 10-15 times/h, a 12 hour light/dark cycle, a light intensity of 150-300 Lux, at least weekly cage replacement. The mice were fed Picolab Rodent diet (5053, Lab Diet, USA) with abundant tap water.
The rats were dosed with belvarafenib dihydrochloride, 99.6% purity, that was stored at room temperature. Dosing was based on active ingredient free base and was corrected for assay and water content. The dosing vehicle was DMSO (10%), PEG 400 (50%), and deionized water (40%). Belvarafenib for dosing (169.51 mg) was dissolved in 86.93 mL of the vehicle for a final concentration of 1.950 mg/mL.
In a single one day dosing regimen, rats were fasted overnight. The body weight of the rats was measured on the day of treatment, from which dosing volumes were set. […] The rats were fed 4 hours post-dose.
Blood (0.3 mL) was collected from the abdominal artery at 0.5, 1, 2, 4, 7, 24, 48, and 72 hours after belvarafenib administration. Plasma was obtained by centrifugation at 12,000 rpm for 2 minutes (Eppendorf) and then harvested and stored at −20° C. (Panasonic, MDF-U334-PK) until analysis.
After bloodletting of rats at each time point, the brain was collected immediately without perfusion. Brain tissue was washed one to two times with saline to remove surface blood. The brains were then trimmed. The collected brain tissue was accurately weighed and mixed with 4-fold saline based on brain weight (a final dilution factor of 5-fold). Each brain sample was then homogenized and placed in a 1.5 mL tube and stored at −20° C. (Panasonic, MDF-U334-PK) until analysis.
Plasma and brain of untreated animals were similarly obtained for use as a blank matrix.
Plasma and brain concentrations of belvarafenib determined by analysis using LC-MS/MS (Waters UPLC H-Class/Xevo TQ (Waters USA)).
Pharmacokinetic parameters of belvarafenib were calculated from plasma and brain concentration-time data by a non-compartmental method using Phoenix™ WinNonlin 8.1 (Certara, USA). The peak plasma and brain concentration (Cmax) and the corresponding time (Tmax) were directly obtained from the raw data. The area under the plasma curve (AUClast) was obtained by linear-log trapezoidal summation. Other PK parameters such as AUC from dosing time extrapolated to infinity (AUCinf), half-life (t1/2) and mean residence time (MTRlast) were calculated using WinNonlin. The plasma and brain concentrations of belvarafenib were presented as MEAN±S.D. The brain to plasma (B/P) ratio of Belvarafenib was calculated by dividing AUClast in the brain by AUClast in the plasma.

[4] = SD (Sprague-Dawley), oral 30 mg/kg, brain
[5] = SD (Sprague-Dawley), oral 30 mg/kg, plasma
[6] = male, SD, oral 15 mg/kg, plasma

Sequence of colony stimulating factor 1 receptor (CSF1R) (P07333 20-972, species assumed): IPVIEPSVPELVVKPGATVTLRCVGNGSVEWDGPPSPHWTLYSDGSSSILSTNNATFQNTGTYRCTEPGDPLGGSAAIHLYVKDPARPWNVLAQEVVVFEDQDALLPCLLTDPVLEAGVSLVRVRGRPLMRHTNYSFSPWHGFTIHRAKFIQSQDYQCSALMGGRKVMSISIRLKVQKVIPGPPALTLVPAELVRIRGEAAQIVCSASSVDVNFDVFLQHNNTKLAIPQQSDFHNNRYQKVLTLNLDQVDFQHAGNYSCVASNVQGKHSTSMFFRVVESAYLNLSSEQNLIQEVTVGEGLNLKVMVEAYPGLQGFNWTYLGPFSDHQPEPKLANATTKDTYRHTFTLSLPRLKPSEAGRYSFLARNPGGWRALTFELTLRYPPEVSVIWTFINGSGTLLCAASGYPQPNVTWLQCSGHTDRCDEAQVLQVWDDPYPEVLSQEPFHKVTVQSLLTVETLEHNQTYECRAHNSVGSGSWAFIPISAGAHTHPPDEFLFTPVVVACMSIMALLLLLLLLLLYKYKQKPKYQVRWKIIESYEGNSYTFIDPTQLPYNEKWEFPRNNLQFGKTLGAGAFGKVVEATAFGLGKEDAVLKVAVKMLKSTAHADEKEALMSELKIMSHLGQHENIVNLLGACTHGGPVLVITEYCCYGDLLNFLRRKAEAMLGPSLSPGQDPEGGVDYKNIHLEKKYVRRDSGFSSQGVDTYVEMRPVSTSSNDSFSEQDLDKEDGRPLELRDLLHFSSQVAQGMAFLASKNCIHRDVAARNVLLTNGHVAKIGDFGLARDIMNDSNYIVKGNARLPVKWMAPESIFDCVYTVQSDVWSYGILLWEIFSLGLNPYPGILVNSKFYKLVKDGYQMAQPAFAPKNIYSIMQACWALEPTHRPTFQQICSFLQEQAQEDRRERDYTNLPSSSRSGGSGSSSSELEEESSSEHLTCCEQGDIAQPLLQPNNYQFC

## Cc1ccc2c(Nc3cccc(Cl)c3F)nccc2c1NC(=O)c1csc2c(N)ncnc12 [Belvarafenib, 4-amino-N-(1-((3-chloro-2-fluorophenyl)amino)-6-methylisoquinolin-5-yl)thieno[3,2-d]pyrimidine-7-carboxamide]
[1]
  inhibition at 1 µM: > 90%
[2]; 450 mg BID
  Disease control: 35.59%
  ORR: 6.78%
  median progression-free survival (PFS): 7.83 weeks
  subjects who developed an event (progression of disease or death): 84.75%
[2]; 450 mg BID, 7 responders
  Median duration of response (DOR): 15.66 weeks
[2]; 450 mg BID, 59 evaluable subjects
  BORR: 11.86%
[2]; 2 BRAF-mutant melanoma responders
  Median DOR: 22.49 weeks
[3]; SD (Sprague-Dawley), oral 30 mg/kg, AUClast brain / AUClast plasma, read-out: B/P ratio
  Kp: 1.2
[3]; [4]
  Cmax: 4880 ng/g
  Tmax: 7 h
[3]; [5]
  AUC(0-t): 98000 ng·h/mL
  Cmax: 4150 ng/mL
  Tmax: 7 h
[3]; SD, oral 30 mg/kg, AUClast brain / AUClast plasma, read-out: B/P ratio
  Kp: 1.2
[3]; SD, oral 30 mg/kg, brain
  Tmax: 4 h
[3]; male, SD, brain/plasma, oral, 15 mg/kg, read-out: B/P
  Kp: 1.38
[3]; male, SD, oral 15 mg/kg, AUClast brain / AUClast plasma, read-out: B/P ratio
  Kp: 1.38
[3]; male, SD, oral 15 mg/kg, brain
  Cmax: 3910 ng/g
  MRT last: 15.5 h
  Tmax: 7 h
  half-life: 9 h
[3]; [6]
  AUC(0-inf): 50600 ng·h/mL
  AUC(0-t): 49400 ng·h/mL
  Cmax: 2130 ng/mL
  MRT last: 18 h
  Tmax: 4 h
  half-life: 12.5 h
[3]; male, SD, oral 30 mg/kg, plasma
  AUC(0-inf): 100000 ng·h/mL
[3]; oral 15 mg/kg, brain
  AUCinf: 68350.0 ng·h/g
  AUClast: 67954.7 ng·h/g
[3]; oral 30 mg/kg, brain
  AUCinf: 115222.3 ng·h/g
  AUClast: 113670.1 ng·h/g
[3]; single oral 15 mg/kg, pre- and post-dosing periods
  general clinical signs: No clinical signs were observed
